From the supplement of paper PMC11061612

Key:
[1] = compound: C1CN(CCC1(C(=O)N[C@@H](CCO)C2=CC=C(C=C2)Cl)N)C3=NC=NC4=C3C=CN4 [Capivasertib]; settings: max 10 µM
Method in brief: (§1)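 Cancer cell lines were plated in 1536-well plates in 7.5 μl of DMEM/F12 or RPMI with 10% FBS and kept 24 hours at 37°C and 5% CO2 before 72 hours of dosing, with final DMSO typically 0.2%. CellTiter-Glo 2.0 luminescence measured viability, scaled between blank-well and DMSO-well means. Dose responses were fitted to a two-parameter logistic curve with a non-linear mixed effects model. This fit gives the single-agent IC50.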

[2] = compound: C=CCn1c(=O)c2cnc(Nc3ccc(N4CCN(C)CC4)cc3)nc2n1-c1cccc(C(C)(C)O)n1 [AZD1775]; settings: max 3 µM
Method in brief: as §1

[3] = compound: CC(=O)Nc1cccc(-n2c(=O)n(C3CC3)c(=O)c3c(Nc4ccc(I)cc4F)n(C)c(=O)c(C)c32)c1 [Trametinib]; settings: max 1 µM
Method in brief: as §1

[4] = compound: CC(=O)c1c(C)c2cnc(Nc3ccc(N4CCNCC4)cn3)nc2n(C2CCCC2)c1=O [Palbociclib]; settings: max 10 µM
Method in brief: as §1

[5] = compound: CC(C)n1c(=O)n(C)c2cnc3cc(F)c(-c4ccc(OCCCN5CCCCC5)nc4)cc3c21 [AZD1390]; settings: max 0.3 µM
Method in brief: as §1

[6] = compound: CC1(C)CCC(CN2CCN(c3ccc(C(=O)NS(=O)(=O)c4ccc(NCC5CCOCC5)c([N+](=O)[O-])c4)c(Oc4cnc5[nH]ccc5c4)c3)CC2)=C(c2ccc(Cl)cc2)C1 [Venetoclax]; settings: max 1 µM
Method in brief: as §1

[7] = compound: CC1=C(C(=CC=C1)Cl)NC(=O)C2=CN=C(S2)NC3=CC(=NC(=N3)C)N4CCN(CC4)CCO [Dasatinib]; settings: max 2 µM
Method in brief: as §1

[8] = compound: CC1=CN2[C@@H](C1)C=NC3=CC(=C(C=C3C2=O)OC)OCCCCCOC4=C(C=C5C(=C4)N=C[C@@H]6CC(=CN6C5=O)C)OC [SG3199]; settings: max 0.001 µM
Method in brief: as §1

[9] = compound: CCN(CCO)CCCOc1ccc2c(Nc3cc(CC(=O)Nc4cccc(F)c4)[nH]n3)ncnc2c1 [AZD2811]; settings: max 1 µM
Method in brief: as §1

[10] = compound: CCc1c2c(nc3ccc(O)cc13)-c1cc3c(c(=O)n1C2)COC(=O)[C@]3(O)CC [SN-38]; settings: max 0.3 µM
Method in brief: as §1

[11] = compound: CN(C)CCCOc1ccc(-c2ccc3ncc4c(c3c2)n(C2CCOCC2)c(=O)n4C)cn1 [AZD0156]; settings: max 3 µM
Method in brief: as §1

[12] = compound: CN(CC[C@H](CSC1=CC=CC=C1)NC2=C(C=C(C=C2)S(=O)(=O)NC(=O)C3=CC=C(C=C3)N4CCC(CC4)[C@H](C5=CC=CC=C5C6=CC=C(C=C6)Cl)O)S(=O)(=O)C(F)(F)F)CCO [AZD4320]; settings: max 1 µM
Method in brief: as §1

[13] = compound: COc1cc(Nc2ncc3c(n2)-c2ccc(Cl)cc2C(c2c(F)cccc2OC)=NC3)ccc1C(=O)O [Alisertib]; settings: max 10 µM
Method in brief: as §1

[14] = compound: COc1cc2ncnc(Nc3ccc(F)c(Cl)c3)c2cc1OCCCN1CCOCC1 [Gefitinib]; settings: max 10 µM
Method in brief: as §1

[15] = compound: COc1cccc(OCCCN)c1-c1cc(Nc2cnc(C#N)cn2)n[nH]1 [Prexasertib]; settings: max 1 µM
Method in brief: as §1

[16] = compound: COc1cccc2c1C(=O)c1c(O)c3c(c(O)c1C2=O)C[C@@](O)(C(=O)CO)C[C@@H]3O[C@H]1C[C@H](N)[C@H](O)[C@H](C)O1 [Doxorubicin]; settings: max 1 µM
Method in brief: as §1

[17] = compound: COc1nnc2ccc(N3CCC(c4ccc(OCCN5CCN(C)C(=O)[C@H]5C)cc4)CC3)nn12 [AZD5153]; settings: max 1 µM
Method in brief: as §1

[18] = compound: CS(=O)(=O)CCNCc1ccc(-c2ccc3ncnc(Nc4ccc(OCc5cccc(F)c5)c(Cl)c4)c3c2)o1 [Lapatinib]; settings: max 10 µM
Method in brief: as §1

[19] = compound: C[C@@H](Nc1cc(F)cc(F)c1)c1cc(C(=O)N(C)C)cc2c(=O)cc(N3CCOCC3)oc12 [AZD8186]; settings: max 3 µM
Method in brief: as §1

[20] = compound: C[C@@H](Oc1cc(-c2cnn(C3CCNCC3)c2)cnc1N)c1c(Cl)ccc(F)c1Cl [Crizotinib]; settings: max 10 µM
Method in brief: as §1

[21] = compound: C[C@@H](c1ccc2nccn2c1)n1nnc2ncc(-c3cnn(C)c3)nc21 [Savolitinib]; settings: max 1 µM
Method in brief: as §1

[22] = compound: C[C@@H]1COCCN1C2=NC(=NC(=C2)C3(CC3)[S@](=N)(=O)C)C4=C5C=CNC5=NC=C4 [AZD6738]; settings: max 10 µM
Method in brief: as §1

[23] = compound: Cc1c2c(nn1C)CSCc1cc(n(C)n1)CSc1cc(c3ccccc3c1)OCCCc1c(C(=O)O)n(C)c3c-2c(Cl)ccc13 [AZD5991]; settings: max 1 µM
Method in brief: as §1

[24] = compound: Cc1cc2ncnn2cc1Nc1ncc2c(n1)n(C1CCOCC1)c(=O)n2C [AZD7648]; settings: max 10 µM
Method in brief: as §1

[25] = compound: Cc1nc(-c2cn3c(n2)-c2ccc(-c4cnn(C(C)(C)C(N)=O)c4)cc2OCC3)n(C(C)C)n1 [Taselisib]; settings: max 10 µM
Method in brief: as §1

[26] = compound: Cn1cnc2c(F)c(Nc3ccc(Br)cc3Cl)c(C(=O)NOCCO)cc21 [Selumetinib]; settings: max 10 µM
Method in brief: as §1

[27] = compound: O=C(c1cc(Cc2n[nH]c(=O)c3ccccc23)ccc1F)N1CCN(C(=O)C2CC2)CC1 [Olaparib]; settings: max 10 µM
Method in brief: as §1

Row | Cell Line | IC50, cell viability 72 h [1] [µM] | IC50, cell viability 72 h [2] [µM] | IC50, cell viability 72 h [3] [µM] | IC50, cell viability 72 h [4] [µM] | IC50, cell viability 72 h [5] [µM] | IC50, cell viability 72 h [6] [µM] | IC50, cell viability 72 h [7] [µM] | IC50, cell viability 72 h [8] [µM] | IC50, cell viability 72 h [9] [µM] | IC50, cell viability 72 h [10] [µM] | IC50, cell viability 72 h [11] [µM] | IC50, cell viability 72 h [12] [µM] | IC50, cell viability 72 h [13] [µM] | IC50, cell viability 72 h [14] [µM] | IC50, cell viability 72 h [15] [µM] | IC50, cell viability 72 h [16] [µM] | IC50, cell viability 72 h [17] [µM] | IC50, cell viability 72 h [18] [µM] | IC50, cell viability 72 h [19] [µM] | IC50, cell viability 72 h [20] [µM] | IC50, cell viability 72 h [21] [µM] | IC50, cell viability 72 h [22] [µM] | IC50, cell viability 72 h [23] [µM] | IC50, cell viability 72 h [24] [µM] | IC50, cell viability 72 h [25] [µM] | IC50, cell viability 72 h [26] [µM] | IC50, cell viability 72 h [27] [µM]
1 | HEC-1 (Endometrial Carcinoma) | > 10 | 1.81 | > 1 | > 10 | > 0.3 | > 1 | > 2 | > 0.001 | > 1 | > 0.3 | > 3 | > 1 | > 10 | > 10 | 0.493 | > 1 | 0.881 | > 10 | > 3 | > 10 | > 1 | > 10 | > 1 | > 10 | > 10 | > 10 | > 10
2 | KE-37 (T-Lymphoblastic Leukemia) | 1.1 | 0.129 | > 1 | 3.85 | > 0.3 | > 1 | > 2 | > 0.001 | 0.0205 | 0.00186 | > 3 | 0.0283 | 0.125 | > 10 | 0.00458 | 0.0538 | 0.21 | 8.53 | > 3 | 3.22 | > 1 | 0.403 | 0.267 | 8.54 | 3.11 | > 10 | > 10
3 | LB996-RCC (Kidney Carcinoma) | 5.32 | 0.403 | > 1 | > 10 | > 0.3 | > 1 | 0.188 | > 0.001 | > 1 | 0.00864 | > 3 | > 1 | 4.59 | > 10 | 0.167 | 0.625 | > 1 | > 10 | > 3 | > 10 | > 1 | 9.94 | > 1 | > 10 | 1.74 | > 10 | > 10
